Measurements from PMC4919066 (PLoS Pathogens, 2016).
Structures can show the parent of a compound that is named as a salt.

How the values were obtained:
[1] = system: pp28-luciferase HCMV Towne; test: microbe, parasite or virus in culture; assay type: cell-based, Human Cytomegalovirus; conditions: for normalized pp28-luciferase activity: emetine 75 nM, 72 hpi
Method: The pp28-luciferase HCMV Towne and a GCV-resistant pp28-luciferase were used. The recombinant viruses express luciferase under the control of the late CMV gene promoter, pp28. Luciferase expression is activated 48–72 hours post infection (hpi). The recombinant viruses provide a highly-sensitive reporter system which correlates with plaque reduction assay. […] Human herpes virus strains were: luciferase HSV1- KOS/Dlux/oriS [52] and clinical isolates of HSV2. The clinical isolates were provided by the clinical microbiology laboratory with no identifiers that can link to a specific subject.
Infection with HCMV or HSV was performed in HFFs, and infection with mouse CMV was performed in MEFs. For HCMV, cells were seeded in either a 96-well plate or 100 mm culture plates (Corning Costar, Sigma Aldrich) at 0.5 or 2 million cells /plate. Following 90 minute adsorption, media was removed and cells were washed with PBS. Media containing 4% FBS and compounds were added to each well. Infected treated HFFs were collected at 72 hpi and lysates were assayed for luciferase activity using a luciferase assay kit (Promega, Madison, WI) on GloMax-Multi+ Detection System (Promega). In second cycle assays, supernatants were collected from all conditions of the first cycle at 96 hpi and used for infection of fresh HFFs in 96-well plates. […] For HSV1-KOS/Dlux/oriS, a luciferase assay was performed at 24 hpi. […] For HCMV or MCMV, HFFs or MEFs were seeded at 0.5 or 2 million cells /plate in a 12-well plate and infected 24 hours later at 100 PFU/well. Following virus adsorption (60 min and 90 min for HSV and HCMV, respectively), virus was aspirated, and DMEM containing 4% fetal bovine serum (FBS) with (for HSV) or without (for HCMV/MCMV) 0.5% carboxymethyl-cellulose, were added with the compounds at indicated concentrations into triplicate wells. After incubation at 37°C for 10 days (for HCMV), 3 days for MCMV or 2 days (for HSV), the overlay was removed and plaques were counted after crystal violet staining.

in vivo = test: in vivo; set-up: species or system BALB/c mice
Method: The dosing solution was prepared in saline with a dosing volume of 10 mL/kg. Blood and tissue samples including liver, lung and spleen were collected at 0, 0.083, 0.25, 0.5, 0.75, 1, 2, 3, 4, 7, 24, 30, 48, 72 and 96 hr. […] Pharmacokinetic parameters (Cmax, Tmax, AUC and t1/2) were calculated with a non-compartmental approach using the Pharsight WinNonLin software (Ver. 6.4). The experimental procedures were approved by the Animal Care and Use Committee of Division of Veterinary Resources, NIH.

[2] = system: protein synthesis in HFFs; test: Translation inhibition assay; assay type: cell-based, human; conditions: nM concentrations, non-infected or HCMV-infected cells, 24 h
Method: […] HFFs were seeded in a 96-well black, clear bottom tissue culture plate. […] A protein synthesis assay kit (Cayman Chemical, Ann Arbor, Michigan) was used according to manufacturer's protocol to quantify emetine-mediated translation inhibition using a fluorescence based assay.

RPS14 = RPS14 (Homo sapiens, UniProt P62263); test: RPS14 nuclear localization, confocal microscopy; assay type: cell-based; conditions: emetine 75 nM, infected high-density cells
Method: Cells were fixed with 3.7% paraformaldehyde for 20 min at room temperature, permeabilized with ice cold methanol for 10 min at -20°C and blocked with 5% bovine serum albumin in 0.5% Tween-20 for 20 min at room temperature. Cells were incubated with primary antibodies at 4°C overnight, washed and incubated with fluorescently-labeled secondary antibodies for 2 h at 37°C. Fluorescence microscopy was performed using a confocal laser scanning microscope (Nikon EZ C1). All images were captured at 60X magnification and processed under identical conditions with constant parameters (including scan speed and excitation and emission wavelengths) using Nikon EZ C1 software. Data analysis (percent nuclear localization) was performed by NIS-Elements software (Nikon) for a minimum of 40 cells in the high-density and 25 cells in the low-density samples from two fields per condition.

[3] = 0.083 h after single oral 0.1 mg/kg, BALB/c mice
[4] = 0.25 h after single oral 0.1 mg/kg, BALB/c mice
[5] = 0.5 h after single oral 0.1 mg/kg, BALB/c mice
[6] = 1 h after single oral 0.1 mg/kg, BALB/c mice
[7] = 2 h after single oral 0.1 mg/kg, BALB/c mice
[8] = 3 h after single oral 0.1 mg/kg, BALB/c mice
[9] = 4 h after single oral 0.1 mg/kg, BALB/c mice
[10] = 7 h after single oral 0.1 mg/kg, BALB/c mice
[11] = 24 h after single oral 0.1 mg/kg, BALB/c mice
[12] = 30 h after single oral 0.1 mg/kg, BALB/c mice
[13] = 48 h after single oral 0.1 mg/kg, BALB/c mice
[14] = 72 h after single oral 0.1 mg/kg, BALB/c mice
[15] = 96 h after single oral 0.1 mg/kg, BALB/c mice

## CC[C@H]1CN2CCc3cc(OC)c(OC)cc3[C@@H]2C[C@@H]1C[C@H]1NCCc2cc(OC)c(OC)cc21 [emetine, emetine dihydrochloride hydrate]
[1]; Human betaherpesvirus 5, read-out: EC50 against pp28-luciferase Towne
  EC50: 0.04 ± 0.00172 µM
[1]; increased cell density
  normalized pp28-luciferase activity: significant reduction
[1]; low cell density
  normalized pp28-luciferase activity: no reduction
[1]; pp28-luciferase Towne, HFFs
  Hill slope of the concentration-response curve: 3.1
In vivo; [3]
  LIVER Conc.: 0.007 µmol/kg
  LIVER Mean Conc.: 3.59 ng/g
  LUNG Conc.: 0.002 µmol/kg
  LUNG Mean Conc.: 1.07 ng/g
In vivo; [4]
  LIVER Conc.: 0.013 µmol/kg
  LIVER Mean Conc.: 6.18 ng/g
  LUNG Conc.: 0.003 µmol/kg
  LUNG Mean Conc.: 1.49 ng/g
In vivo; [5]
  LIVER Conc.: 0.037 µmol/kg
  LIVER Mean Conc.: 17.7 ng/g
  LUNG Conc.: 0.006 µmol/kg
  LUNG Mean Conc.: 2.90 ng/g
  SPLEEN Conc.: 0.002 µmol/kg
  SPLEEN Mean Conc.: 1.12 ng/g
In vivo; [6]
  LIVER Conc.: 0.117 µmol/kg
  LIVER Mean Conc.: 56.5 ng/g
  LUNG Conc.: 0.017 µmol/kg
  LUNG Mean Conc.: 8.11 ng/g
  SPLEEN Conc.: 0.012 µmol/kg
  SPLEEN Mean Conc.: 5.60 ng/g
In vivo; [7]
  LIVER Conc.: 0.192 µmol/kg
  LIVER Mean Conc.: 92.2 ng/g
  LUNG Conc.: 0.020 µmol/kg
  LUNG Mean Conc.: 9.70 ng/g
  SPLEEN Conc.: 0.018 µmol/kg
  SPLEEN Mean Conc.: 8.81 ng/g
In vivo; [8]
  LIVER Conc.: 0.316 µmol/kg
  LIVER Mean Conc.: 152 ng/g
  LUNG Conc.: 0.037 µmol/kg
  LUNG Mean Conc.: 17.9 ng/g
  SPLEEN Conc.: 0.032 µmol/kg
  SPLEEN Mean Conc.: 15.3 ng/g
In vivo; [9]
  LIVER Conc.: 0.437 µmol/kg
  LIVER Mean Conc.: 210 ng/g
  LUNG Conc.: 0.071 µmol/kg
  LUNG Mean Conc.: 34.2 ng/g
  SPLEEN Conc.: 0.064 µmol/kg
  SPLEEN Mean Conc.: 30.6 ng/g
In vivo; [10]
  LIVER Conc.: 0.527 µmol/kg
  LIVER Mean Conc.: 253 ng/g
  LUNG Conc.: 0.097 µmol/kg
  LUNG Mean Conc.: 46.6 ng/g
  SPLEEN Conc.: 0.093 µmol/kg
  SPLEEN Mean Conc.: 44.9 ng/g
In vivo; [11]
  LIVER Conc.: 0.193 µmol/kg
  LIVER Mean Conc.: 93.0 ng/g
  LUNG Conc.: 0.138 µmol/kg
  LUNG Mean Conc.: 66.1 ng/g
  SPLEEN Conc.: 0.175 µmol/kg
  SPLEEN Mean Conc.: 84.3 ng/g
In vivo; [12]
  LIVER Conc.: 0.174 µmol/kg
  LIVER Mean Conc.: 83.6 ng/g
  LUNG Conc.: 0.133 µmol/kg
  LUNG Mean Conc.: 64.1 ng/g
  SPLEEN Conc.: 0.193 µmol/kg
  SPLEEN Mean Conc.: 92.5 ng/g
In vivo; [13]
  LIVER Conc.: 0.073 µmol/kg
  LIVER Mean Conc.: 34.9 ng/g
  LUNG Conc.: 0.078 µmol/kg
  LUNG Mean Conc.: 37.4 ng/g
  SPLEEN Conc.: 0.139 µmol/kg
  SPLEEN Mean Conc.: 66.6 ng/g
In vivo; [14]
  LIVER Conc.: 0.044 µmol/kg
  LIVER Mean Conc.: 21.2 ng/g
  LUNG Conc.: 0.049 µmol/kg
  LUNG Mean Conc.: 23.7 ng/g
  SPLEEN Conc.: 0.094 µmol/kg
  SPLEEN Mean Conc.: 45.2 ng/g
In vivo; [15]
  LIVER Conc.: 0.028 µmol/kg
  LIVER Mean Conc.: 13.5 ng/g
  LUNG Conc.: 0.030 µmol/kg
  LUNG Mean Conc.: 14.3 ng/g
  SPLEEN Conc.: 0.058 µmol/kg
  SPLEEN Mean Conc.: 28.1 ng/g
In vivo; male, mouse, in vivo, single oral 0.1 mg/kg, BALB/c mice, read-out: calculated half-life (converted)
  half-life: 35 h
In vivo; single oral 0.1 mg/kg, male BALB/c mice, UPLC-MS/MS
  plasma concentrations: mostly below the level limit of quantification
[2]
  inhibition of protein synthesis: did not inhibit protein synthesis
RPS14; 24 hpi
  nuclear localization of RPS14: 66%
RPS14; 72 hpi
  nuclear localization of RPS14: 11%
